# Results published in publication PMC4249368 (Antimicrobial Agents and Chemotherapy, 2014).
# Entries after “also recorded” stand apart in the source; their conditions may differ. Where two headings read alike, the source gives them in different places. No end group written: not given here.
# Columns and labels:
# [1] = SPR binding to lipid bilayers on Biacore L1 chip; conditions: for normalized antibiotic bound to the three lipid bilayers (result in words): 10 μM, normalized to molecular weight and RULipid, Fig. 3B, n = 3
# Experimental: Lipid stock solutions were prepared in chloroform and mixed at the described mass composition of POPC, POPC/POPG (8:2, wt/wt) and POPC/POPE (8:2, wt/wt) ([33]), and the chloroform was evaporated as previously described ([34]). The lipids were resuspended in 1 ml of filtered (0.22-μm pore size) running buffer (phosphate-buffered saline [PBS]; pH 7.3) and then sonicated for 25 min in 5-min intervals. Small unilamellar vesicles (SUVs) were prepared by extrusion through a polycarbonate filter with a 50-nm pore diameter ([35]).
# SPR experiments were carried out with a Biacore T200 system (GE Health, Australia) using a Biacore vesicle capture (L1) sensor chip, which has lipophilic groups covalently attached to carboxymethylated dextran that facilitates direct lipid bilayer deposition ([34], [36]). All measurements were undertaken at a temperature of 25°C to maintain the lipid bilayer fluidity ([34]). SUVs at a total lipid concentration of 0.5 mg/ml were immediately passed across the chip surface for 60 min at a low flow rate of 2 μl/min, following three 30-s injections of 20 mM 3-cholamidopropyl-dimethylammonio-1-propane sulfonate (CHAPS) solution at a high flow rate of 30 μl/min to completely remove the captured vesicles from the sensor chip. To remove any multilamellar structures from the lipid surface and to stabilize the baseline, 10 mM NaOH was injected for 1 min at 50 μl/min. The coverage extent of the surface was later determined by a 5-min injection of 0.1 mg/ml bovine serum albumin (BSA) at a flow rate of 10 μl/min.
# The antibiotics were serially diluted in running buffer and then injected sequentially from the lowest (0.01 μM) to the highest (10 μM) concentration at a flow rate of 20 μl/min for 180 s, followed by a dissociation of 300 s and a 1-min regeneration with 10 mM HCl at a flow rate of 10 μl/min. SPR experiments were performed in triplicate. The actual amount of antibiotic bound to each lipid bilayer was corrected by subtraction of the bulk refractive index difference (buffer control) and then normalized by dividing the antibiotic-bound resonance units (RUBound) obtained in the SPR sensorgrams (see Fig. 3A, below) by the corresponding antibiotic molecular weight and the resonance units of the individual lipid vesicle captured on the chip surface (RULipid) (see Fig. S1 in the supplemental material) by using the following equation: normalized antibiotic bound = (10^3 × RUBound)/(molecular weight × RULipid). Normalization against molecular weight and RULipid was necessary, as SPR units are mass dependent and RULipid values vary according to lipid type ([37]).
# [2] = tested on: MSSA ATCC 25923; assay: Membrane depolarization assay with DiSC3(5); type: cell-based, Staphylococcus aureus; conditions: for membrane depolarization (result in words): 0.1 to 30 μM, Fig. 4, n = 3
# Experimental: Antibiotic-induced bacterial cytoplasmic membrane depolarization was determined by using the fluorescent dye 3,3-dipropylthiacarbocyanine [DiSC3(5); Sigma-Aldrich, Australia] as previously described ([38]) with a high-throughput modification. Briefly, mid-logarithmic-phase MSSA ATCC 25923 cells were collected by centrifugation (5,000 × rpm, 10 min), washed once and diluted to approximately 5 × 10^7 CFU/ml in buffer (5 mM HEPES, 5 mM glucose; pH 7.2). The cell suspension was incubated with 0.4 μM DiSC3(5) until dye uptake was maximal, as indicated by a stable reduction in fluorescence of assay medium. KCl at 100 mM was added to equilibrate the cytoplasmic and external K^+ concentrations. A 90-μl aliquot of cell suspension was transferred into an Optiplate 96-well white microplate (PerkinElmer Corp., Australia), and 10 μl of antibiotic was added, to yield a series of solutions ranging from 0.1 to 30 μM. A blank with only cell suspension and dye was used for background subtraction. The fluorescence intensity was monitored in real time by using a BMG Labtech PolarStar Omega multimode reader fitted with 620-10 and 665-10 excitation and emission filters, respectively, at an excitation wavelength of 622 nm and an emission wavelength of 670 nm. The membrane depolarization assays were performed in triplicate, and the fluorescence leakage (FL) was defined by the following equation: FL = (FF − FB) − (FI − FB). Here, FF was the final fluorescence intensity in assay medium after 30 min of treatment with antibiotic, FI was the initial fluorescence intensity of the cell suspension, and FB was the fluorescence intensity of the blank.
# [3] = tested on: MSSA ATCC 25923; conditions: for MIC in the presence of 50% human serum: MHB with 50% human serum, broth microdilution; for MIC, MHB: Table S1, MHB without serum, Corning NonTC microtitre plates (CLS3370)
# Experimental: MSSA ATCC 25923 was purchased from the American Type Culture Collection (Manassas, VA). Mueller-Hinton broth (MHB; Bacto Laboratories Pty. Ltd.) was used to grow MSSA for determination of in vitro antibacterial activity in the presence and absence of 50% human serum (Life Technologies Australia, Melbourne, Australia) and time-kill assays. Luria-Bertani (LB) medium (Difco) and MHB adjusted with Ca^2+ (25 mg/liter) and Mg^2+ (12.5 mg/liter) (CA-MHB) were used for bacterial growth in the membrane depolarization assay and TEM, respectively. The phospholipids used for SPR analysis, 1-palmitoyl-2-oleoyl-sn-glycero-3-phosphoglycerol (POPG), 1-palmitoyl-2-oleoyl-sn-glycero-3-phosphocholine (POPC), and 1-palmitoyl-2-oleoyl-sn-glycero-3-phosphoethanolamine (POPE), were purchased from Auspep Pty. Ltd. (Melbourne, Australia).
# (§1) MICs against MSSA ATCC 25923 were measured by broth microdilution according to the Clinical and Laboratory Standards Institute (CLSI) M7-A7 methodology ([30]). Briefly, serial 2-fold dilutions of each antibiotic were added into Costar nontreated polystyrene 96-well plates, and each well was inoculated with 50 μl of MSSA in MHB to a final concentration of approximately 5 × 10^5 CFU/ml. […] The dilution representing the MIC and two of the more and less concentrated dilutions were plated out onto Trypticase soy agar plates and enumerated to determine viable CFU/ml ([31]).
# [4] = tested on: MSSA ATCC 25923; assay: Time-kill studies (CLSI M26-A); type: cell-based, Staphylococcus aureus
# Experimental: Time-kill studies were carried out based on guideline M26-A of the CLSI ([32]), using Costar nontreated polystyrene 96-well plates. […] Culture aliquots were mixed with the charcoal suspension (25 mg/ml) to minimize antibiotic carryover. Viable cell counts were determined after 0, 0.5, 1, 2, 4, 6, 8, and 24 h of incubation at 37°C by plating serially diluted samples onto Trypticase soy agar plates. Bactericidal activity was defined as a ≥3-log10 CFU/ml decrease, in comparison with the baseline, after 24 h of incubation ([32]).
# [5] = tested on: MSSA ATCC 25923; conditions: for MBC, 10% Human serum: Table S1, MHB with 10% human serum; for MBC, 50% Human serum: Table S1, MHB with 50% human serum; for MBC, MHB: Table S1, MHB without serum, clear wells plated onto agar, 37°C overnight
# Experimental: as §1, with “([31]). […]” for “([31]).”
# 25923 in MHB media in the presence and absence of Human serum (10% and 50%) in
# Corning NonTC microtitre plates (CLS3370)
# a The MBCs were determined by plating out the clear wells onto an agar plate and were incubated at
# 37°C overnight. Each colony represents one viable bacterium. […]
# [6] = tested on: MSSA ATCC 25923; assay: TEM examination of bacterial ultrastructure; type: cell-based, Staphylococcus aureus; conditions: 3 h, 37°C, CA-MHB
# Experimental: After centrifugation (8,000 × rpm, 3 min), the pellets were resuspended in 1 ml of 3% (vol/vol) glutaraldehyde in 0.1 M sodium cacodylate. Glutaraldehyde–fixed samples were washed twice with 0.1 M sodium cacodylate. To postfit cells, 1% (wt/vol) osmium tetraoxide was added. After the wash step, samples were stained with 2% (wt/vol) uranyl acetate in 50% ethanol. Samples were then dehydrated with graded ethanol solutions and infiltrated with Epon resin (ProSciTech, Townsville, Australia). All processes were performed on a Pelco 34700 Biowave microwave oven (Ted Pella Inc., Redding, CA). Ultrathin sections were cut at 60 to 70 nm by using a UC6 ultramicrotome (Leica). The sections were examined in a JEM 1011 TEM operated at 80 kV and photographed using a digital camera.
# [7] = design: method as in PMID 23872123, PMID 9791177, PMID 16531990; conditions: Lipid II pyrophosphate moiety; cited from earlier work
# [8] = design: method as in PMID 23872123, PMID 9791177, PMID 16531990; conditions: phospholipid bilayers; cited from earlier work
# [9] = tested on: transglycosylation step of peptidoglycan biosynthesis; conditions: relative to MIC against MSSA ATCC 25923; cited from earlier work
# [10] = tested on: MSSA and MRSA strains; conditions: cited from earlier work
# Source text: The importance of the membrane depolarization and bactericidal killing in vivo is difficult to quantify due to the limited published pharmacokinetic (PK) studies ([18], [19]), as well as its nonsystemic oral administration in human clinical trials. In addition, MIC determinations can be highly dependent on plate type, serum, and BSA ([18], [41]).
# [11] = tested on: MurG-catalyzed reaction of peptidoglycan biosynthesis; conditions: relative to MIC against MSSA ATCC 25923; cited from earlier work
# [12] = MHB, broth microdilution CLSI M7-A7, ~5 × 10^5 CFU/ml, 24 h, 37°C, Costar nontreated polystyrene 96-well plates
Compound,normalized antibiotic bound to the three lipid bilayers (result in words) [1],"MIC in the presence of 50% human serum ([3]; 24 h, 37°C) [mg/L]","MIC [3, 12] [mg/L]","MIC, MHB [3] [mg/L]","MBC, 10% Human serum [5] [mg/L]","MBC, 50% Human serum [5] [mg/L]","MBC, MHB [5]",membrane depolarization (result in words) ([2]; 30 min treatment),further results
CN[C@H](CC(C)C)C(=O)N[C@H]1C(=O)N[C@@H](CC(N)=O)C(=O)N[C@H]2C(=O)N[C@H]3C(=O)N[C@H](C(=O)N[C@H](C(=O)O)c4cc(O)cc(O)c4-c4cc3ccc4O)[C@H](O)c3ccc(c(Cl)c3)Oc3cc2cc(c3O[C@@H]2O[C@H](CO)[C@@H](O)[C@H](O)[C@H]2O[C@H]2C[C@](C)(N)[C@H](O)[C@H](C)O2)Oc2ccc(cc2Cl)[C@H]1O [vancomycin],negligible binding to each of the three different membranes,2,1,2,2,2,2 µg/mL,,"fluorescence leakage ([2]; 12× MIC, 30 min): no leakage; MIC, 10% Human serum ([3]; Table S1, MHB with 10% human serum, Corning NonTC plates): 1/2; MIC, 50% Human serum ([3]; Table S1, MHB with 50% human serum, Corning NonTC plates): 2 mg/L; reduction in viable count ([4]; vancomycin at the MBC and above for 8 h): > 3 log10 CFU/ml; morphological changes by TEM ([6]; 16× MIC): did not cause septal deformation or loss of midline"
GLFDVIKKVASVIGGL-NH2 [citropin 1.1],,,,,,,,,"MIC ([3]; ATCC 25923, 24 h): 32 mg/L"
nisin,no binding to either anionic or zwitterionic phospholipid bilayers,,32,,,,,dramatic membrane depolarization at the MIC and above,"concentration at which membrane depolarization occurs ([2]; 30 min treatment, DiSC3(5), normalized to citropin 1.1 at 10 μM, ramoplanin 3× MIC gives similar extent as […] MIC nisin): 0.25 × MIC; Kd [7]: 0.01 µM; Kd [8]: 100 µM"
ramoplanin,POPC:POPG (8:2) > POPC > POPC:POPE (8:2),0.5,,,,0.5,8/2,dose-dependent membrane depolarization but less efficiently than nisin,"SPR dissociation after completion of injection ([1]; 0.01 to 1 μM): complete dissociation; SPR association with membranes at low concentrations ([1]; 0.01 to 1 μM, PBS pH 7.3, 25°C): negligible association; SPR binding response (RUBound) ([1]; 3 and 10 μM, both anionic and zwitterionic membranes, 180 s injection, PBS pH 7.3, 25°C): ~6,000 RU; concentration at which binding to anionic and zwitterionic membranes occurs ([1]; dose-dependent): ≥ 3 µM; 50% inhibitory concentration (IC50), transglycosylation [9]: 0.25 × MIC; effect of 50% human serum on MIC [10]: not affected; time to bactericidal activity ([4]; concentrations equal to or above the MBC): less than 4 h; MBC as multiple of MIC [5]: 2 × MIC; MBC ([5]; lowest concentration yielding 99.9% reduction in initial colony count after 24 h, MHB): 4 mg/L; IC50, MurG-catalyzed reaction [11]: 20 × MIC; morphological changes by TEM ([6]; 1× MIC): deformed septa that were slightly thickened, misshapen, and lacked distinct septal midlines; also recorded: appearance of mesosome structures in cell membranes"
teicoplanin,bound preferentially to the anionic membrane over zwitterionic membranes,,1,2,0.25,0.5,4 µg/mL,measurable but minor fluorescence leakage at concentrations significantly higher than the MIC,
